ChEMBL document CHEMBL3400036, “Novel 4-substituted-N,N-dimethyltetrahydronaphthalen-2-amines: synthesis, affinity, and in silico docking studies at serotonin 5-HT2-type and histamine H1 G protein-coupled receptors” (Bioorg Med Chem, 2015)

Assays:
Format in all cases: cell-based
[1] = biological target: 5-hydroxytryptamine receptor 2A (Homo sapiens, UniProt P28223); experiment: Displacement of [3H]Ketanserin from human 5-HT2A receptor expressed in HEK293 cells by scintillation counting analysis
Chain of 5-hydroxytryptamine receptor 2A (P28223 whole entry): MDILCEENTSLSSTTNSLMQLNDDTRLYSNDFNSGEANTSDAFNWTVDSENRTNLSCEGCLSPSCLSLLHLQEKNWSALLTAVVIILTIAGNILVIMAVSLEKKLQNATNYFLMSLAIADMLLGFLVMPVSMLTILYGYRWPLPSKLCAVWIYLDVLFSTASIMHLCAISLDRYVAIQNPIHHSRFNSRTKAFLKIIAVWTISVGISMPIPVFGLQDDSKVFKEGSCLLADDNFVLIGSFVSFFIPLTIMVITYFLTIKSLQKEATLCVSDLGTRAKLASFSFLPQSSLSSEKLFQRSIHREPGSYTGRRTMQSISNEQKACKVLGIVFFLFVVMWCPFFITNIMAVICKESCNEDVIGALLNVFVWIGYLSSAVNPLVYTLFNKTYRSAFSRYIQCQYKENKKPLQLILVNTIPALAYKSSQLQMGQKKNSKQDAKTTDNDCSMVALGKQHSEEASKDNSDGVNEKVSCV

[2] = biological target: 5-hydroxytryptamine receptor 2B (Homo sapiens, UniProt P41595); experiment: Displacement of [3H]Mesulergine from human 5-HT2B receptor expressed in HEK293 cells by scintillation counting analysis
Chain of 5-hydroxytryptamine receptor 2B (P41595 whole entry): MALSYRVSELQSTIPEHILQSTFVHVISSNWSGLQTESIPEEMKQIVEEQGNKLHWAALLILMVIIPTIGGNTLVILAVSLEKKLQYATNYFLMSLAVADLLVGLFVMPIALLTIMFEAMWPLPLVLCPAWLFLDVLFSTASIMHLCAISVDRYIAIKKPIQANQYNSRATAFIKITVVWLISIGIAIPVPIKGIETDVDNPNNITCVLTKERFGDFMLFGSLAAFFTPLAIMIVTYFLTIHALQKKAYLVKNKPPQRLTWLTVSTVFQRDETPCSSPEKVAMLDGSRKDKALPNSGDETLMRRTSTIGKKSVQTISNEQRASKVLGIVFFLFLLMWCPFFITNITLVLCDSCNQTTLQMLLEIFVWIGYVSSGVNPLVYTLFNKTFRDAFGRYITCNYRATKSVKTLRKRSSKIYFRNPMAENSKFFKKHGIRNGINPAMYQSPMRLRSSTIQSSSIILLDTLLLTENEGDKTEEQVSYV

[3] = biological target: T1, 5-hydroxytryptamine receptor 2C (Homo sapiens, UniProt P28335); experiment: Displacement of [3H]Mesulergine from human 5-HT2C-INI receptor expressed in HEK293 cells by scintillation counting analysis
T1 sequence (P28335 whole entry): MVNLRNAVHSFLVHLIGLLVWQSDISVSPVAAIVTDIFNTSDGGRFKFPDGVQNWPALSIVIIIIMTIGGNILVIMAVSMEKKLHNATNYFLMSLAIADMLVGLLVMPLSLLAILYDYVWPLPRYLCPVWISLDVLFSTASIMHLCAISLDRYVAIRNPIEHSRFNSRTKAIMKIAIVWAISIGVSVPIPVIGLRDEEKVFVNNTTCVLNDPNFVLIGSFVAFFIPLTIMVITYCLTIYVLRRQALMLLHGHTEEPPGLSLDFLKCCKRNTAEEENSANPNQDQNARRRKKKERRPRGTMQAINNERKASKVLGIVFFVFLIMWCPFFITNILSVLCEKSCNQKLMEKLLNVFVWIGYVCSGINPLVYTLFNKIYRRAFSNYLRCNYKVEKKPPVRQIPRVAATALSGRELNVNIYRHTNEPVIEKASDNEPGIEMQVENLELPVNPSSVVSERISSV

SMILES	Ki [1] [µM]	Ki [2] [µM]	Ki [3] [µM]
CN(C)[C@@H]1Cc2ccccc2[C@@H](c2ccccc2)C1	0.1	0.094	
CN(C)[C@H]1Cc2ccccc2[C@H](C2CCCCCCC2)C1		0.04	
CN(C)[C@@H]1Cc2ccccc2[C@@H](C2CCCCC2)C1	0.02	0.02	0.007
CN(C)[C@H]1Cc2ccccc2[C@H](C2CCCCC2)C1	0.08	0.17	0.03
CN(C)[C@@H]1Cc2ccccc2[C@@H](c2ccccc2Br)C1	1.1	0.65	0.07
CN(C)[C@H]1Cc2ccccc2[C@H](c2ccccc2Br)C1	0.76	4.1	0.078
CN(C)[C@H]1Cc2ccccc2[C@H](c2ccc(C(F)(F)F)cc2)C1		0.25	
CN(C)[C@@H]1Cc2ccccc2[C@@H](c2ccc(Br)cc2)C1	0.22	0.21	0.1
CN(C)[C@H]1Cc2ccccc2[C@H](c2ccc(Br)cc2)C1	0.06	0.03	0.07
CN(C)[C@@H]1Cc2ccccc2[C@@H](c2ccc(Cl)cc2)C1	0.25	0.3	0.12
CN(C)[C@H]1Cc2ccccc2[C@H](c2ccc(Cl)cc2)C1	0.05	0.08	0.055
CN(C)[C@@H]1Cc2ccccc2[C@@H](c2ccc(F)cc2)C1	0.14	0.4	0.068
CN(C)[C@H]1Cc2ccccc2[C@H](c2ccc(F)cc2)C1	0.071	0.066	0.075
CN(C)[C@@H]1Cc2ccccc2[C@@H](c2cccc([N+](=O)[O-])c2)C1	0.074	0.07	0.01
CN(C)[C@H]1Cc2ccccc2[C@H](c2cccc([N+](=O)[O-])c2)C1	0.5	0.02	0.12
CN(C)[C@@H]1Cc2ccccc2[C@@H](c2cccc(C(F)(F)F)c2)C1	0.08	0.06	0.01

SMILES	Ki [1] [µM]	Ki [2] [µM]	Ki [3] [µM]
CN(C)[C@H]1Cc2ccccc2[C@H](c2cccc(C(F)(F)F)c2)C1	1.3	0.2	0.23
CN(C)[C@@H]1Cc2ccccc2[C@@H](c2cccc(Br)c2)C1	0.02	0.008	0.004
CN(C)[C@H]1Cc2ccccc2[C@H](c2cccc(Br)c2)C1	0.26	0.04	0.2
CN(C)[C@@H]1Cc2ccccc2[C@@H](c2cccc(Cl)c2)C1	[…]	0.03	[…]
CN(C)[C@H]1Cc2ccccc2[C@H](c2cccc(Cl)c2)C1	[…]	0.05	[…]
CN(C)[C@@H]1Cc2ccccc2[C@@H](c2cccc(F)c2)C1		0.07	0.043
CN(C)[C@H]1Cc2ccccc2[C@H](c2cccc(F)c2)C1		0.11	0.2
CN(C)[C@H]1Cc2ccccc2[C@H](c2ccccc2)C1	0.47	0.24	
CN(C)[C@@H]1Cc2ccccc2[C@@H](C2CCCCCCC2)C1		0.01	
CN(C)[C@H]1Cc2ccccc2[C@H](c2cccc(-c3ccccc3)c2)C1		0.2	1
CN(C)[C@@H]1Cc2ccccc2[C@@H](c2cccc(-c3ccccc3)c2)C1		0.073	0.005
CN(C)[C@H]1Cc2ccccc2[C@H](c2ccccc2Cl)C1	2.8	0.71	0.05
CN(C)[C@@H]1Cc2ccccc2[C@@H](c2ccccc2Cl)C1	2.4	0.3	0.29
Cc1ccccc1[C@@H]1C[C@@H](N(C)C)Cc2ccccc21	0.7	6	2
Cc1ccccc1[C@H]1C[C@H](N(C)C)Cc2ccccc21	1	0.8	1.6
